Measurements published in patent US20240374646A1, “COMPOSITION FOR INHIBITING INFLAMMATION OR AGING OF STEM CELLS, AND METHOD FOR INHIBITING INFLAMMATION OR AGING BY USING SAME” (MITOIMMUNE THERAPEUTICS INC., priority 2021, published 2024).

What was measured:
Format in all cases: cell-based, human
[1] = test system: TNF-α/IFN-γ-exposed hPD-MSCs; test: Oxygen consumption rate (OCR), Seahorse XFp Extracellular Flux Analyzer
Method: An oxygen consumption rate was measured to assess a mitochondrial metabolic state using a Seahorse XFp Extracellular Flux Analyzer (Agilent, Santa Clara, CA, USA). A total of 10,000 cells/well were seeded in Seahorse XFp cell culture miniplates and cultured with or without TNF-α, IFN-γ and the example compound for 24 hours prior to analysis. The growth medium was replaced with a Seahorse XF base medium containing 2 mM L-glutamine, 5.5 mM D-glucose, and 1 mM sodium pyruvate according to the composition of α-MEM. Cells were treated with 1 μM oligomycin, 0.5 μM FCCP, and 0.5 μM rotenone/antimycin A during the assay. The OCR was measured for 2 minutes after mixing for 3 minutes, and this process was repeated 12 times. A basal OCR was normalized according to the protein concentration determined by BCA analysis.
The OCRs of the untreated MSC control, the TNF-α/IFN-γ-exposed MSC control (TI), and the experimental group treated with the example compound in the TNF-α/IFN-γ-exposed MSC control were measured by the above method, and the results are shown in FIG. 3A.
The basal respiration, ATP production amount, proton leakage, and spare respiratory capacity (SRC) for each of the above samples are shown in FIGS. 3B to 3E.

[2] = test system: mTOR; test: Western blotting, mTOR phosphorylation ratio (mTORC1 pathway); conditions: vs MSC control exposed to TNF-α/IFN-γ; FIG. 4D
Method: Further, the phosphorylation-induced activation ratios of AKT/mTOR/S6K, which represents the mTORC1 pathway, was analyzed. mTORC1 activation is known to not only induce senescence-associated phenotypes in MSCs, but also impair quiescence and sternness. In the present experiment, the phosphorylation ratio was confirmed using western blotting analysis as described below.
Proteins were extracted with a Pro-Prep protein lysis buffer (iNtRON) and quantified by a protein quantitative analysis kit (BIOMAX, Seoul, Korea). Samples were then heated in 4× Laemmli sample buffer (Bio-Rad) containing 2-mercaptoethanol (Bio-Rad), and proteins were loaded onto an 8% sodium dodecyl sulfate polyacrylamide gel and electrophoresed at 60 V for 30 minutes, and then electrophoresed at 120 V for 1 hour. […]
Immunoreactive bands were detected using an enhanced chemiluminescence detection reagent (Clarity™ Western blot substrate, Bio-Rad) and images of the bands were obtained using ImageSaver Version 6 (ATTO, Tokyo, Japan). The intensity of each band was analyzed with CA4 analyzer software (ATTO), and each experiment was performed in triplicate under the same conditions. […]

[3] = test system: mitofusion 1 (MFN1); test: Real-time qPCR, mitochondrial dynamics gene MFN1; conditions: vs TNF-α/IFN-γ-exposed MSC control (TI); FIG. 2B
Method: Real-time qPCR was performed using an Easy-Spin Total RNA Kit (iNtRON, Seongnam, Korea) to extract total RNA from hPD-MSCs and RNA concentration was adjusted to 100 ng/μL using a microplate spectrophotometer (Epoch™ Microplate Spectrophotometer, BioTek, Winooski, VT, USA), and the extracted RNA was reverse transcribed into cDNA using RT PreMix (dT20) (Bioneer, Seoul, Korea) using a SimpliAmp Thermal Cycler (Life Technologies, Carlsbad, CA, USA). Real-time qPCR was performed using a real-time PCR machine (CFX Connect, Bio-Rad, Hercules, CA, USA), SYBR Green Supermix (Bio-Rad) and the relevant primers, and all experiments were performed in triplicate for statistical analysis.
To investigate mitochondrial dynamics, real-time qPCR was performed to analyze the expression of dynamin-related protein 1 (DRP1), which is a mitochondrial division-related gene, and mitofusion 1 (MFN1) and mitofusion 2 (MFN2), which are […] mitochondrial membrane fusion-related genes. As the real-time qPCR analysis method, the same method described in Experimental Example 1-2 above was used, and the results are shown in FIG. 2B.

[4] = test system: p16; test: Real-time qPCR, p16 cell cycle-related gene expression; conditions: TNF-α/IFN-γ-exposed MSCs treated with compound; FIG. 1C
Method: Human placenta-derived mesenchymal stem cells (hPD-MSCs) were harvested from inside the placental chorion, and the harvested cells were cultured in an alpha-Minimum Essential medium (Cytiva, Marlborough, MA, USA) supplemented with 10% fetal bovine serum (ThermoFisher, Waltham, MA, USA), 1% penicillin/streptomycin (ThermoFisher, Waltham, MA, USA), 25 ng/mL human fibroblast growth factor-4 (Peprotech, Rocky Hill, NJ, USA) and 1 μg/mL heparin (Merck, San Francisco, CA, USA). A total of 1×10^5 hPD-MSCs were seeded in a cell culture dish (90×20 mm) (SPL, Pocheon, Korea) and cultured at 37° C. in an incubator containing 5% CO2. The cells were subcultured every 4 days until reaching 70 to 80% confluency. Expanded cells were obtained at passage 12 or 13. During subculture, viable cells were stained with Trypan blue (Merck) and the number of cells was manually counted.
In a passage for sample extraction, hPD-MSCs were cultured for 24 hours in a medium with or without an example compound (5-[(1,1-dioxido-4-thiomorpholinyl)methyl]-2-phenyl-N-(tetrahydro-2H-pyran-4-yl)-1H-indole-7-amine) while including 2.5 ng/mL TNF-α (Peprotech) and 25 ng/mL IFN-γ (Peprotech).
In the present experiment, the expression levels of stem cell differentiation-related genes and cell cycle-related genes were analyzed by qPCR. […]

SMILES: O=S1(=O)CCN(Cc2cc(NC3CCOCC3)c3[nH]c(-c4ccccc4)cc3c2)CC1 [example compound, 5-[(1,1-dioxido-4-thiomorpholinyl)methyl]-2-phenyl-N-(tetrahydro-2H-pyran-4-yl)-1H-indole-7-amine]
- spare respiratory capacity (SRC) ([1]; TNF-α/IFN-γ-exposed MSC control treated with compound, FIG. 3E): almost the same value as the untreated MSC control
- oxygen consumption rate (OCR) ([1]; TNF-α/IFN-γ-exposed MSCs, 24 hours, FIG. 3A): restored TNF-α/IFN-γ-exposed MSCs to quiescence
- decrease of basal respiration ([1]; vs TNF-α/IFN-γ-exposed MSC control (TI), FIG. 3B): about 80 pmol/min/cell
- downregulation of oxygen consumption amount for ATP production ([1]; vs TNF-α/IFN-γ-exposed MSC control (TI), FIG. 3C): about 70 pmol/min/cell
- reduction of mTOR phosphorylation ratio (pmTOR/mTOR) [2]: ~30%
- MFN1 expression level [3]: slightly reduced
- p16 expression (relative to untreated MSC control) [4]: remarkably decreased
